Consider four compounds from patent US20050228038A1, “11-Beta hydroxysteroid dehydrogenase type 1 inhibitors as anti-obesity/anti-diabetes compounds and 17-beta hydrosteroid dehydrogenase type I inhibitors as useful agents for the treatment of cancers, especially breast cancer” (priority 2004, published 2005).

This assay addresses T1, 17betaHSD1 (Homo sapiens, UniProt P14061).
T1 sequence (P14061 1-328): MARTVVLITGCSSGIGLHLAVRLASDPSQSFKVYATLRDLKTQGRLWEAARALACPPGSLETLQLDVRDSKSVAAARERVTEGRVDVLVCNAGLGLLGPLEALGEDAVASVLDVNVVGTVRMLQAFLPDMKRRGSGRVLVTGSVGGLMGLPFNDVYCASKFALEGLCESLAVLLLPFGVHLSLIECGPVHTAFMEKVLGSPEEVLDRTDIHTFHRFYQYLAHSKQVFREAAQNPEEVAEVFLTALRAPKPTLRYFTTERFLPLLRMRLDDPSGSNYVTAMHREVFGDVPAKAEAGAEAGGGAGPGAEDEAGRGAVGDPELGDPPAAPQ
Put plainly: screen of gossypol related compounds against 17betaHSD1 (enzyme activity). It is filed as biochemical. Conditions: for Ki: read-out: inhibition constant. The method, then: Seven gossypol related compounds were screened against 17betaHSD1. […] Four gossypol derivatives, in which the aldehyde functional group is modified, were tested. The peri-acylated nitrites, gossylic nitrile diacetate and gossylic nitrile divalerate, represent compounds in which the aldehyde group is [drawing 13] converted to a nitrile, and the peri hydroxyl of gossypol is derivatized.
Gossylic iminolactone and gossylic lactone were the most promising compounds, producing 80-90% reduction in enzyme activity. The inhibition constants for gossylic lactone and gossylic iminolactone were determined to be 2.2 and 4.3 uM respectively.

`Cc1cc2c(C(C)C)c(O)c(O)c3c2c(c1-c1c(C)cc2c(C(C)C)c(O)c(O)c4c2c1OC4=N)OC3=N` [Gossylic iminolactone, gossylic iminolactone]: the Ki is 4.3 µM.
On to `CC(=O)Oc1c(-c2c(C)cc3c(C(C)C)c(O)c(O)c(C#N)c3c2OC(C)=O)c(C)cc2c(C(C)C)c(O)c(O)c(C#N)c12` [Gossylic nitrile diacetate, gossylic nitrile diacetate], for which the “reduction in enzyme activity” value (concentrations not given) was 13%.
In the case of `Cc1cc2c(C(C)C)c(O)c(O)c3c2c(c1-c1c(C)cc2c(C(C)C)c(O)c(O)c4c2c1OC4=O)OC3=O` [gossylic lactone], the Ki was found to be 2.2 µM.
`CCCCC(=O)Oc1c(-c2c(C)cc3c(C(C)C)c(O)c(O)c(C#N)c3c2OC(=O)CCCC)c(C)cc2c(C(C)C)c(O)c(O)c(C#N)c12` [gossylic nitrile divalerate]: under “concentrations not given”, the “reduction in enzyme activity (in words)” value was “no reduction”.
